Reference: BindingDB's records for doi:10.1016/j.bmcl.2008.04.044 (Wyeth Research, 2008)

Biological target: Insulin-like growth factor 1 receptor (Homo sapiens, UniProt P08069)
Experiment: In Vitro Kinase Inhibition Assay
Conditions: pH 7.5; 22 °C
Procedure: Assays were performed in microtiter plates in reaction buffer containing biotinylated substrate, ATP, and purified kinase in the presence of test compounds. After incubation, product was detected using a homogeneous time-resolved fluorescence […] assay (LANCE).

Insulin-like growth factor 1 receptor, sequence (P08069 31-736 limits assumed): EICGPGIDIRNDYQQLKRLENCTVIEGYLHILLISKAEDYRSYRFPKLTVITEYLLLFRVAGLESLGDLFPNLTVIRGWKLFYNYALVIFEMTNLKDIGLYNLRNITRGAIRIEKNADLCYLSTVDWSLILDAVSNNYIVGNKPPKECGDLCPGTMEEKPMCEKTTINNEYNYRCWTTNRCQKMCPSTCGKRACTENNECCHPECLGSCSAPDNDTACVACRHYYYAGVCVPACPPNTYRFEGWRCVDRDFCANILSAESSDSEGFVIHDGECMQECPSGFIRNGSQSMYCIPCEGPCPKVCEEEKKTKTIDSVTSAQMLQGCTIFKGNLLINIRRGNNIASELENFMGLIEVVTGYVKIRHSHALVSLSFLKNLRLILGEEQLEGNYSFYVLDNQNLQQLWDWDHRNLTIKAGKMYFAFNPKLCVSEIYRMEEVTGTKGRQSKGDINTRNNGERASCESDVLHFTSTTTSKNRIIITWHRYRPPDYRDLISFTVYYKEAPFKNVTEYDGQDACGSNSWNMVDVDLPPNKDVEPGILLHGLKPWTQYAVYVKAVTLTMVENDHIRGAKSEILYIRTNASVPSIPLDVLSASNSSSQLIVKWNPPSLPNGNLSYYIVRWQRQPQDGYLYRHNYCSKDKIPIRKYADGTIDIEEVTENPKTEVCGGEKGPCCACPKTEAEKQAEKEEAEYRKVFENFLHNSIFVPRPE
Insulin-like growth factor 1 receptor, sequence (P08069 741-1367 limits assumed): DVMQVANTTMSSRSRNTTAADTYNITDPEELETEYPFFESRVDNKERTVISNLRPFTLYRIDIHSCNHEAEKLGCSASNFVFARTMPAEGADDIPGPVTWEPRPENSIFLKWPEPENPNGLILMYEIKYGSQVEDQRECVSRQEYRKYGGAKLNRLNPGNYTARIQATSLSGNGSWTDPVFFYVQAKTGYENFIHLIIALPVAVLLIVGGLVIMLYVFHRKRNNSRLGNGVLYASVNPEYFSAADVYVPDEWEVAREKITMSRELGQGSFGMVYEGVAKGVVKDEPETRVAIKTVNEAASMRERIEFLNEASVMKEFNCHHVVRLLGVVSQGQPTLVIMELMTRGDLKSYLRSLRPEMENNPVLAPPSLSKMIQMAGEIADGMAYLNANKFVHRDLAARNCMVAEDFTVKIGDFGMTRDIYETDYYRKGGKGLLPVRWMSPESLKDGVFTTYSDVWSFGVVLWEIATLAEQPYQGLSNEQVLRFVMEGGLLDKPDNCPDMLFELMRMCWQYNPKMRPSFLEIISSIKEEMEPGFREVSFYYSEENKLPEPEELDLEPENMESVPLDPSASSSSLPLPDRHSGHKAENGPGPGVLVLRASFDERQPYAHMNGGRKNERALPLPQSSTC

| IC50 | Structure (SMILES) |
| --- | --- |
| > 10 µM | COc1cc(Nc2ccc3c(c2)C(=CNc2ccc(CN4CCCCC4)cc2)C(=O)NC3=O)cc(C(F)(F)F)c1 [(4Z)-6-{[3-methoxy-5-(trifluoromethyl)phenyl]amino}-4-({[4-(piperidin-1-ylmethyl)phenyl]amino}methylidene)-1,2,3,4-tetrahydroisoquinoline-1,3-dione] |
| > 10 µM | CN(C)c1ccc(Nc2ccc3c(c2)C(=CNc2ccc(CN4CCCCC4)cc2)C(=O)NC3=O)cc1 [(4Z)-6-{[4-(dimethylamino)phenyl]amino}-4-({[4-(piperidin-1-ylmethyl)phenyl]amino}methylidene)-1,2,3,4-tetrahydroisoquinoline-1,3-dione] |
| > 10 µM | O=C1NC(=O)c2ccc(Nc3cccc(C(F)(F)F)c3)cc2C1=CNc1ccc(CN2CCCCC2)cc1 [(4Z)-4-({[4-(piperidin-1-ylmethyl)phenyl]amino}methylidene)-6-{[3-(trifluoromethyl)phenyl]amino}-1,2,3,4-tetrahydroisoquinoline-1,3-dione] |
| > 10 µM | O=C1NC(=O)c2ccc(Nc3cccc(Cl)c3)cc2C1=CNc1ccccc1 [(4Z)-6-[(3-chlorophenyl)amino]-4-[(phenylamino)methylidene]-1,2,3,4-tetrahydroisoquinoline-1,3-dione] |
| > 10 µM | COc1cccc(Nc2ccc3c(c2)C(=CNc2ccccc2)C(=O)NC3=O)c1 [(4Z)-6-[(3-methoxyphenyl)amino]-4-[(phenylamino)methylidene]-1,2,3,4-tetrahydroisoquinoline-1,3-dione] |
| > 10 µM | O=C1NC(=O)c2ccc(Nc3ccc(Cl)cc3)cc2C1=CNc1ccc(CN2CCCCC2)cc1 [(4Z)-6-[(4-chlorophenyl)amino]-4-({[4-(piperidin-1-ylmethyl)phenyl]amino}methylidene)-1,2,3,4-tetrahydroisoquinoline-1,3-dione] |
| > 10 µM | Nc1cccc(Nc2ccc3c(c2)C(=CNc2ccc(CN4CCCCC4)cc2)C(=O)NC3=O)c1 [(4Z)-6-[(3-aminophenyl)amino]-4-({[4-(piperidin-1-ylmethyl)phenyl]amino}methylidene)-1,2,3,4-tetrahydroisoquinoline-1,3-dione] |
| > 10 µM | O=C1NC(=O)c2ccc(Nc3ccc4[nH]ccc4c3)cc2C1=CNc1ccc(CN2CCCCC2)cc1 [(4Z)-6-(1H-indol-5-ylamino)-4-({[4-(piperidin-1-ylmethyl)phenyl]amino}methylidene)-1,2,3,4-tetrahydroisoquinoline-1,3-dione] |
| > 10 µM | Cc1cccc(Nc2ccc3c(c2)C(=CNc2ccc(CN4CCCCC4)cc2)C(=O)NC3=O)c1 [(4Z)-6-[(3-methylphenyl)amino]-4-({[4-(piperidin-1-ylmethyl)phenyl]amino}methylidene)-1,2,3,4-tetrahydroisoquinoline-1,3-dione] |
| > 10 µM | CCOC(=O)c1ccc(Nc2ccc3c(c2)C(=CNc2ccc(CN4CCCCC4)cc2)C(=O)NC3=O)cc1 [ethyl 4-{[(4Z)-1,3-dioxo-4-({[4-(piperidin-1-ylmethyl)phenyl]amino}methylidene)-1,2,3,4-tetrahydroisoquinolin-6-yl]amino}benzoate] |
